Data set [1] has as its system Staphylococcus aureus. The data set can be described thus: Antibacterial activity against Staphylococcus aureus ATCC 29213 assessed as inhibition of bacterial growth incubated for 24 hrs by broth microdilution method. Format: functional. The following applies: ATCC 29213, 24 h. On the technique in general: In broth dilution the organism is exposed to a series of concentrations in liquid medium.

Data set [2] concerns Staphylococcus aureus. Briefly: Antibacterial activity against methicillin-resistant Staphylococcus aureus N315 assessed as inhibition of bacterial growth incubated for 24 hrs by broth microdilution method. The following applies: N315, 24 h. Format: functional.
In data set [3] the test system is Staphylococcus aureus. Briefly: Antibacterial activity against methicillin-resistant Staphylococcus aureus NCTC 10442 assessed as inhibition of bacterial growth incubated for 24 hrs by broth microdilution method. It is filed as functional. The following applies: NCTC 10442, 24 h.
Data set [4] in a line: Induction of hemolysis in rabbit RBC incubated for 1 hr. Format: cell-based, Oryctolagus cuniculus, Erythrocyte. Particulars: rabbit red blood cells (erythrocytes).
For data set [5], the system named is Escherichia coli. Briefly: Antibacterial activity against Escherichia coli assessed as inhibition of bacterial growth incubated for 24 hrs by broth microdilution method. It is filed as functional.
Data set [6] has as its system Pseudomonas aeruginosa. Briefly: Antibacterial activity against Pseudomonas aeruginosa assessed as inhibition of bacterial growth incubated for 24 hrs by broth microdilution method. Format: functional.
Data set [7] deals with Staphylococcus aureus. The data set can be described thus: Antibacterial activity against Staphylococcus aureus ATCC 29213 assessed as induction of bacterial killing at 4 times MIC incubated for 1 hrs followed by re-plating of cultures and measured after 24 hrs by time kill study relative to control. Format: functional.
The subject of data set [8] is Staphylococcus aureus. Briefly: Antibacterial activity against Staphylococcus aureus ATCC 29213 assessed as induction of bacterial killing at 8 times MIC incubated for 0.5 hrs followed by re-plating of cultures and measured after 24 hrs by time kill study relative to control. Format: functional.
Data set [9] has as its system Staphylococcus aureus. The data set can be described thus: Antibacterial activity against Staphylococcus aureus ATCC 29213 assessed as bacterial cell killing at 4 times MIC incubated for 1 hrs followed by re-plating of cultures and measured after 24 hrs by time kill study relative to control. Format: functional.
Data set [10] has as its system Staphylococcus aureus. The data set can be described thus: Antibacterial activity against Staphylococcus aureus ATCC 29213 assessed as suppression of bacterial re-growth at 4 to 8 times MIC incubated for 0.5 to 24 hrs followed by re-plating of cultures and measured after 24 hrs by time kill study relative to control. It is filed as functional, organism-based.
Data set [11] deals with Staphylococcus aureus. The data set can be described thus: Induction of cytoplasmic membrane permeabilization in Staphylococcus aureus ATCC 29213 at 1 to 8 times MIC by SYTOX green dye based fluorescence assay. Format: functional, organism-based.
The test system of data set [12] is Staphylococcus aureus. The data set can be described thus: Induction of cytoplasmic membrane permeabilization in methicillin-resistant Staphylococcus aureus NCTC 10442 at 1 to 8 times MIC by SYTOX green dye based fluorescence assay. Format: functional, organism-based.
Data set [13] concerns Staphylococcus aureus. The data set can be described thus: Induction of cell surface disruption in Staphylococcus aureus ATCC 29213 at 8 times MIC incubated for 2 hrs by scanning electron microscopy. Format: functional, organism-based.
In data set [14] the test system is Staphylococcus aureus. Briefly: Induction of bacterial cell membrane integrity loss in Staphylococcus aureus ATCC 29213 incubated for 2 hrs propidium iodide and SYTO9 dye based LIVE/DEAD bacterial viability assay. It is filed as functional, organism-based.
The test system of data set [15] is Staphylococcus aureus. The data set can be described thus: Resistance index, ratio of MIC for antibacterial activity against Staphylococcus aureus ATCC 29213 passed over 19 cycles in presence of compound for period of 19 consecutive days by broth microdilution method to MIC for antibacterial activity against Staphylococcus aureus ATCC 29213. It is filed as functional.

A short description of data set [16]: Cytotoxicity in human MDA-MB-231 cells assessed as reduction in cell viability incubated for 24 hrs by CCK8 assay. It is filed as cell-based. (Formazan colour is commonly taken as a measure of viable cells.)
The nature of data set [17]: Cytotoxicity in human MDA-MB-231 cells assessed as cell viability at 32 times MIC incubated for 24 hrs by CCK8 assay relative to control. The following applies: read-out: Activity. Format: cell-based.
Data set [18] can be described thus: Cytotoxicity in mouse corneal epithelial cells assessed as cell viability at 32 times MIC incubated for 24 hrs by CCK8 assay relative to control. The following applies: read-out: Activity. It is filed as cell-based.
In data set [19] the test system is Staphylococcus aureus. The data set can be described thus: Antibacterial activity against Staphylococcus aureus ATCC 29213 infected in C57BL6 mouse assessed as reduction in bacterial count at 0.5% treated topically 4 times per day for 3 days starting from 1 day after infection relative to control. It is filed as functional.
Data set [20] deals with Staphylococcus aureus. The data set can be described thus: Antibacterial activity against Staphylococcus aureus ATCC 29213 assessed as induction of bacterial killing at 4 times MIC incubated for 8 hrs followed by re-plating of cultures and measured after 24 hrs by time kill study relative to control. Format: functional.
The nature of data set [21]: Cytotoxicity in human MDA-MB-231 cells assessed as cell viability at 16 times MIC incubated for 24 hrs by CCK8 assay relative to control. It is filed as cell-based. The following applies: read-out: Activity.
Data set [22] is described as follows: Cytotoxicity in mouse corneal epithelial cells assessed as cell viability at 16 times MIC incubated for 24 hrs by CCK8 assay relative to control. Format: cell-based. Particulars: read-out: Activity.

Molecules are shown by their SMILES. ≈ marks a conversion by molar mass, not a printed value. Calls of active or inactive are those of the source. The calls are words filed in the database; no cut-off is given here. A value given as a limit tells only on which side of the number the result lay.

Regarding `COC(=O)[C@H](CCCNC(=N)N)NC(=O)COc1c(-c2ccc(OCC=C(C)C)cc2)oc2cc(OCC=C(C)C)cc(OCC(=O)N[C@@H](CCCNC(=N)N)C(=O)OC)c2c1=O`, the minimum inhibitory concentration (MIC) in [1] was 1.8 µM (≈ 1.58 µg/mL); in data set [2], 1.8 µM (≈ 1.58 µg/mL); in [3], 1.8 µM (≈ 1.58 µg/mL); in [5], 12.5 to 25 µg/mL (≈ 14.2 to 28.4 µM); in data set [6], 12.5 to 25 µg/mL (≈ 14.2 to 28.4 µM). Besides, the concentration for 50% haemolysis (HC50) at 1 h in data set [4] was > 228 µM. The values for the LCK in [7] and in [8] were 3.21 and 3.22, respectively. Besides, the results for the Activity result in data set [9] and in data set [19] were “>=99.9%” and 3.28 log10CFU, respectively. Also, the outcome in [10], in [11], in data set [12], in data set [13] and in data set [14] was Active. The Ratio entry in data set [15] is listed as “<=4”. Besides, the CC50 at 24 h in [16] is > 50 µg/mL. Also, the figures for the viability at 24 h, 32 times MIC in [17] and in data set [18] were 75% and 70.1%, respectively.
Turning to `CN[C@H](CC(C)C)C(=O)N[C@H]1C(=O)N[C@@H](CC(N)=O)C(=O)N[C@H]2C(=O)N[C@H]3C(=O)N[C@H](C(=O)N[C@H](C(=O)O)c4cc(O)cc(O)c4-c4cc3ccc4O)[C@H](O)c3ccc(c(Cl)c3)Oc3cc2cc(c3O[C@@H]2O[C@H](CO)[C@@H](O)[C@H](O)[C@H]2O[C@H]2C[C@](C)(N)[C@H](O)[C@H](C)O2)Oc2ccc(cc2Cl)[C@H]1O` [VANCOMYCIN], the minimal inhibitory concentration (MIC) in data set [1] was 0.54 µM (≈ 0.783 µg/mL); in [2] it was 1.08 µM (≈ 1.57 µg/mL); in data set [3], 1.08 µM (≈ 1.57 µg/mL). Further, in data set [20], the LCK came to 1.18.
Turning to `COC(=O)[C@H](CCCNC(=N)N)NC(=O)COc1c(-c2ccc(OCC=C(C)C)cc2)oc2cc(OCC=C(C)C)cc(O)c2c1=O`, the MIC in [1] came to 4.8 µM (≈ 3.12 µg/mL); in data set [2], 2.4 µM (≈ 1.56 µg/mL); in data set [3] it was 4.8 µM (≈ 3.12 µg/mL). In [4], the HC50 at 1 h came to 107 µM. The MIC entry in [5] and in data set [6] was “inactive” in each case. Moreover, the LCK amounted to 3.19 in data set [7] and 3.78 in data set [8]. Besides, the Activity entry in data set [9] was “>=99.9%”. In addition, the outcome in data set [10], in data set [11], in data set [12], in data set [13] and in [14] was Active. Moreover, in data set [15], the Ratio result is “<=4”. For the same compound, the CC50 at 24 h in data set [16] was > 50 µg/mL. The viability at 24 h, 16 times MIC in data set [21] amounted to 67.3%; in data set [22] it was 62.1%.
For the compound `COC(=O)[C@H](Cc1c[nH]cn1)NC(=O)COc1c(-c2ccc(OCC=C(C)C)cc2)oc2cc(OCC=C(C)C)cc(O)c2c1=O`, the minimum inhibitory concentration (MIC) in data set [1], in data set [2] and in [3] was > 79.2 µM throughout. Besides, the HC50 at 1 h in data set [4] was > 317 µM.
Turning to `CCCOc1ccc(-c2oc3cc(OCCC)cc(O)c3c(=O)c2OCCCN(CC)CC)cc1`, the MIC in [1], in data set [2] and in data set [3] was 12.9 µM (≈ 6.24 µg/mL) throughout. Further, in data set [4], the HC50 at 1 h was determined as 121 µM.
Turning to `CCCCCCCOc1ccc(-c2oc3cc(OCCCCCCC)cc(O)c3c(=O)c2O)cc1`, the MIC in data set [1], in data set [2] and in [3] was > 104 µM each time. For the same compound, the HC50 at 1 h in data set [4] is > 414 µM.
In the case of `CCN(CC)CCCNC(=O)COc1c(-c2ccc(OCC=C(C)C)cc2)oc2cc(OCC=C(C)C)cc(OCC(=O)NCCCN(CC)CC)c2c1=O`, the MIC in data set [1], in [2] and in [3] was > 65.5 µM throughout. For the same compound, in data set [4], the HC50 at 1 h is > 262 µM.
Turning to `CCCCCOc1ccc(-c2oc3cc(OCCCCC)cc(O)c3c(=O)c2O)cc1`, the minimum inhibitory concentration (MIC) in data set [1], in data set [2] and in data set [3] was > 117 µM in each case. Further, the concentration for 50% haemolysis (HC50) at 1 h in data set [4] was > 469 µM.
With `CCN(CC)CCCCCCOc1c(-c2ccc(OCC=C(C)C)cc2)oc2cc(OCC=C(C)C)cc(O)c2c1=O`, the minimal inhibitory concentration (MIC) in data set [1], in data set [2] and in [3] was 10.8 µM (≈ 6.24 µg/mL) in each case. The HC50 at 1 h in data set [4] amounted to 83.8 µM.
Regarding `CC(C)=CCOc1ccc(-c2oc3cc(OCC=C(C)C)cc(O)c3c(=O)c2OCCCN2CCSCC2)cc1`, the minimum inhibitory concentration (MIC) in data set [1], in [2] and in [3] was > 88.4 µM throughout. The concentration for 50% haemolysis (HC50) at 1 h in [4] was > 354 µM.
Take `CCCCCCCCCOc1ccc(-c2oc3cc(OCCCCCCCCC)cc(O)c3c(=O)c2OCCCN(CC)CC)cc1`: the MIC in data set [1], in data set [2] and in [3] was > 76.7 µM in each case. Further, the concentration for 50% haemolysis (HC50) at 1 h in data set [4] is > 307 µM.

For orientation: MIC means the lowest concentration that inhibits growth of the organism. For orientation: HC50 means the concentration giving 50% haemolysis. Read a high HC50 as less damage to red cells. One may read the CC50 as the concentration at which the toxic effect on the cells reaches its halfway point.

For the origin of these results see ChEMBL document CHEMBL4602730, “In Vitro and in Vivo Evaluation of Membrane-Active Flavone Amphiphiles: Semisynthetic Kaempferol-Derived Antimicrobials against Drug-Resistant Gram-Positive Bacteria” (J Med Chem, 2020).
